One molecule from patent publication US20250144099A1, “INK4 TUMOR SUPPRESSOR PROTEINS MEDIATE RESISTANCE TO CDK4/6 KINASE INHIBITORS” (MEMORIAL SLOAN-KETTERING CANCER CENTER, priority 2021, published 2025) can be followed below.

“Also recorded” adds a separate entry of the source.

In series [1] the test system is patient-derived xenograft models. Nature of the series: Patient-derived xenograft tumor growth. Type of series: in vivo, mice. Particulars: two patient-derived xenograft models; ribociclib at clinical equivalent dose. On the technique in general: Xenograft models place foreign cells or tissue in a host animal.
A further series relates to MCF-7 parental cells. Nature of the series: Senescence Green staining and cell cycle analysis. The format is cell-based, human. To be noted: 500 nM; senescence 8 days, cell cycle 24 h. Here is the method: (§1) Senescence analysis. […] Cells were harvested using trypsin/EDTA, then stained with the CellEvent Senescence Green Flow Cytometry Assay Kit (Invitrogen) according to the manufacturer's instructions. Briefly, cells were fixed with 2% paraformaldehyde for 15 min at room temperature and stained with the CellEvent Senescence Green Probe for 2 hours at 37° C. without CO2. After incubation, cells were washed with PBS 3 times and resuspended in FACS buffer (PBS with 2% FBS) for analysis on BD Biosciences LSR Fortessa using a 488 nm laser and 530 nm/30 filter (BD Biosciences). Data analysis was performed with FCS Express 7 (De Novo Software).
Cell cycle analysis. […] Cells were detached from the cell culture dish with trypsin/EDTA, then washed with PBS and fixed in 70% ice-cold EtOH overnight. Prior to staining, EtOH was removed, and cells were washed twice with FACS buffer. Cells were then resuspended in staining buffer containing 1000 μl FACS buffer with 2 μg/ml propidium iodide (Invitrogen) and 100 μg/ml RNase A (Invitrogen). Cell cycle profiles were measured with BD Biosciences LSR Fortessa and analyzed with FCS Express 7.

The subject of series [2] is prostate cancer cell 22RV1. The series is described as follows: Colony formation assay. Particulars: 21 days treatment. The format is cell-based.
Another series can be described thus: Pharmacokinetic study. The format is in vivo, C57BL/6 male mice. Here is the method:
Pharmacokinetic study. C57BL/6 male mice were dosed with BSJ-05-017 solution formulation (i.p., 5/95 DMSO/10% captisol, dose 25 mg/kg) and BSJ-03-096 solution formulation (p.o., 5/95 DMSO/10%, dose 10 mg/kg). Blood samples were collected at 0.08, 0.25, 0.5, 1, 2, 4, 6, 8 and 24 hr. The blood samples were collected from sets of three mice at each time point in microcentrifuge tubes containing K2EDTA as an anticoagulant. Plasma samples were separated by centrifugation and stored below −70° C. until bioanalysis. All samples were processed for analysis by precipitation using acetonitrile and analyzed with a partially validated LC/MS/MS method (LLOQ −1.22 ng/mL for IV and PO, LLOQ −5.02 ng/mL for IP). Pharmacokinetic parameters were calculated using the noncompartmental analysis tool of WinNonlin Enterprise software (Version 6.3).

Another series has as its system phosphorylation of Rb. Nature of the series: Immunoblotting of Rb phosphorylation in cells. Type of series: cell-based, human. Particulars: FAT1 loss / CDK6-high CDK4/6i-resistant MCF7 cells. The method, then: (§2) Cell lysates were collected in RIPA buffer (Thermo Fisher Scientific) supplemented with protease and phosphatase inhibitors (Pierce). Protein concentration was quantified by using the BCA kit (Fisher Scientific). […] of protein lysates were loaded onto 4-12% SDS-PAGE gels (Invitrogen) for electrophoresis and transferred onto nitrocellular membranes. Blots were blocked with Intercept™ (TBS) Blocking Buffer (LI-COR Bioscience #927-60001) and incubated with primary antibody at 4° C. overnight. Secondary antibodies conjugated with fluorescence (LI-COR Bioscience #926-68071 and #926-32210) were incubated for 1 h at room temperature and blots were scanned by Odyssey Clx Imaging System from LI-COR Bioscience.

The next series has as its system CDK6-high cells. The series is described as follows: Senescence Green flow cytometry assay. The format is cell-based, human. To be noted: 8 days; BSJ-05-017 500 nM, abemaciclib 100 nM, palbociclib 500 nM. Here is the method:
as §1

For the next series, the target named is CDK6 (Homo sapiens, UniProt Q00534). Nature of the series: Immunoblotting of CDK6 degradation in cells. Details: MCF7 cells that lost FAT1 expression and with high CDK6 expression; endogenous in cells; host or cells: MCF-7 FAT1 loss cells (also MCF-7 parental). Type of series: cell-based. Here is the method:
as §2
A general note: Immunoblotting shows a protein as a band on a membrane.

A further series concerns ~900 cell lines. The series is described as follows: PRISM cell line screening. Type of series: cell-based. Particulars: 8 pt. dose, 5 days. Here is the method:
Cell Lines. The current PRISM cell set consists of 931 cell lines representing more than 45 lineages including both adherent and suspension/hematopoietic cell lines. These cell lines largely overlap with and reflect the diversity of the Cancer Cell Line Encyclopedia (CCLE) cell lines (see https://portals.broadinstitute.org/ccle). Cell lines were grown in RPMI 10% FBS without phenol red for adherent lines and RPMI 20% FBS without phenol red for suspension lines. Parental cell lines were stably infected with a unique 24-nucleotide DNA barcode via lentiviral transduction and blasticidin selection. After selection, barcoded cell lines were expanded and QCed (mycoplasma contamination test, a SNP test for confirming cell line identity, and barcode ID confirmation). Passing barcoded lines were then pooled (20-25 cell lines per pool) based on doubling time and frozen in assay-ready vials.
PRISM Screening. […] These assay ready plates were then seeded with the thawed cell line pools. […]
Barcode Amplification and Detection. Each cell line's unique barcode is located at the end of the blasticidin resistance gene and gets expressed as mRNA. […] Finally, Luminex beads that recognize the specific barcode sequences in the cell set were hybridized to the PCR products and then detected using a Luminex scanner which reports signal as a median fluorescent intensity (MFI).

For another series, the target named is T1, CDK4 (Homo sapiens, UniProt P11802).
T1 construct: CDK4 and CDK6 were immunoprecipitated from isogenic drug sensitive (MCF7 parental cells with low CDK6); endogenous in cells; host or cells: MCF-7 parental and MCF-7 FAT1 CRISPR knockout (CDK6-high) cells
T1 sequence (P11802 whole entry): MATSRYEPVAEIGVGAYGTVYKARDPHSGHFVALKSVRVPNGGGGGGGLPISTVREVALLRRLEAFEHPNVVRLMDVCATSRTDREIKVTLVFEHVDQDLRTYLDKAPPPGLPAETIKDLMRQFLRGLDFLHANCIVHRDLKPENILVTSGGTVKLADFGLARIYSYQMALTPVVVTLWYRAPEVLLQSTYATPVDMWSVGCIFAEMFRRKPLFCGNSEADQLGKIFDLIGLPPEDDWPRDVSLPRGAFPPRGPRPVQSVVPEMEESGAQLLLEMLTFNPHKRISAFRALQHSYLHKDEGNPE
T1 sequence (P24385 whole entry partner): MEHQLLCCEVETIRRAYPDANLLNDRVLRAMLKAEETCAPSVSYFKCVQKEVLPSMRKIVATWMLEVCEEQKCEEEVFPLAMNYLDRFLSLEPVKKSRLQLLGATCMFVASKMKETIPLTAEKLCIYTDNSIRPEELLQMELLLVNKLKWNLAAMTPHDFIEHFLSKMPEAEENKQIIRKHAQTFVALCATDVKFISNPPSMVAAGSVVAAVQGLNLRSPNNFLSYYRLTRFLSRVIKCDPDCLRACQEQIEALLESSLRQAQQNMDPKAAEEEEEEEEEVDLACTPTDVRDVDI
Nature of the series: Immunoblotting of CDK4 degradation in cells. The format is cell-based. Here is the method:
as §2

Setting [3] is: FAT1 loss / CDK6-high CDK4/6i-resistant MCF7 cells, 24 h treatment.
The mark [4] stands for this setting: MCF7 cells with overexpression of CDK6.

Sequence of CDK6 (Q00534 whole entry): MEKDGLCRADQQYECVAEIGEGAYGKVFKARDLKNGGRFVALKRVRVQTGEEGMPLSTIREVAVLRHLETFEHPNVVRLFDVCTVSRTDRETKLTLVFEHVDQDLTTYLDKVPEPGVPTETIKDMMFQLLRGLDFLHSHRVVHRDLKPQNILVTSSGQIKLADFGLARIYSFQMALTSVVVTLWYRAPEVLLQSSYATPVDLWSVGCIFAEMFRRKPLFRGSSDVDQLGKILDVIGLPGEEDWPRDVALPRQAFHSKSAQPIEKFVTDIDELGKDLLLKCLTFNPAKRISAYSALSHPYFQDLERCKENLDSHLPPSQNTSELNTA

`CC(=O)c1c(C)c2cnc(Nc3ccc(N4CCN(CCCCC(=O)N[C@H](C(=O)N5C[C@H](O)C[C@H]5C(=O)N[C@@H](C)c5ccc(-c6scnc6C)cc5)C(C)(C)C)CC4)cn3)nc2n(C2CCCC2)c1=O` [BSJ-05-017, (2S,4R)-1-((S)-2-(5-(4-(6-((6-acetyl-8-cyclopentyl-5-methyl-7-oxo-7,8-dihydropyrido[2,3-d]pyrimidin-2-yl)amino)pyridin-3-yl)piperazin-1-yl)pentanamido)-3,3-dimethylbutanoyl)-4-hydroxy-N—((S)-1-(4-(4-methylthiazol-5-yl)phenyl)ethyl)pyrrolidine-2-carboxamide]: in series [1], the “inhibition of tumor growth” value was “effective in inhibiting tumor growth”. The “senescence and cell cycle arrest” value with MCF-7 parental cells was “induces senescence and cell cycle arrest to a same extent as abemaciclib and palbociclib”. The colony formation result in [2] is “more sensitive to BSJ-05-017 than to palbociclib”. Moreover, the Cmax in the series “Pharmacokinetic study” (male, C57BL/6, mouse, plasma, ip, single dose 25 mg/kg i.p.) was determined as 2600 nM. Besides, the concentration at 24 h in “Pharmacokinetic study” (male, C57BL/6, mouse, plasma, ip, single dose 25 mg/kg i.p., read-out: plasma concentration at 24h post dosing) was around 100 nM. In “Pharmacokinetic study” (single dose in mice, i.p. or p.o.), the metabolic stability entry is “good metabolic stability”. Also, the “inhibition of phosphorylation of Rb (and downstream E2F1/cyclin A2)” value in the series with phosphorylation of Rb is reported as “effective inhibition of the phosphorylation of Rb”. Further, in the series with CDK6-high cells, the senescence-marker positive cells entry was “significantly higher number of cells into senescence compared with abemaciclib or palbociclib”. Also, the “degradation of CDK6” value was “most significant degradation of both CDK4 and CDK6; also recorded: high potency in degrading CDK4 and CDK6” on CDK6 (setting [3]); “effectively degrade CDK4 and CDK6” at CDK6 (setting [4]). In the series with ~900 cell lines, the “inhibition of cell growth across cell lines (AUC of cell viability)” value was “cells of other cancer types are also sensitive”. The “degradation of CDK4” value is “most significant degradation of both CDK4 and CDK6; also recorded: high potency in degrading CDK4 and CDK6” on CDK4 (setting [3]); “effectively degrade CDK4 and CDK6” at CDK4 (setting [4]).

In general, Cmax refers to the maximum level reached in the sampled fluid or tissue.
